In patent US10633408B2, “Nucleoside-lipid compounds with pH-sensitive dialkylorthoester chains and their use for transportation or vectorization of at least one therapeutic agent” (UNIVERSITE DE BORDEAUX, priority 2015, dated 2020):

What was measured:
[1] = Liposome characterization by dynamic light scattering and zeta potential; type: physicochemical; conditions: liposomes of the compound alone, 1 mg/mL in Milli-Q water; for Pdi (polydispersity) of liposomes / d (diameter) of liposomes: DLS
Description: Zeta potential measurements and Dynamic light scattering (DLS) measurements of liposomes were performed with a MalvernNanoZS device.
100 μL of stock solutions of anionic or cationic compounds of formula (I) prepared in examples 2 and 6 (10 mg/mL in dichloromethane) were placed in glass tubes, dried under dry N2 and then desiccated under vacuum. Milli-Q Water was added to the dried lipid to obtain liposomes dispersions (1 mg/mL) after vortex agitation and sonication for 10 min.
The size distribution by intensity measured by dynamic light scattering (DLS) of liposomes prepared from compound 11 prepared in example 6 (anionic compounds of formula (I)) is shown on FIG. 3A, and of liposomes prepared from compound 6 prepared in example 2 (cationic compound of formula (I)) is shown on FIG. 3B.

[2] = 1H NMR kinetic study of orthoester hydrolysis; type: physicochemical; conditions: for rate of hydrolysis of the orthoester function, effect of pH: MeOD:phosphate buffer (1:2), pH 5 vs 7.4, 37° C.
Description: 1HNMR experiments were performed to study the kinetics of hydrolysis for both anionic and cationic compounds of formula (I) at pH 5 and 7.4 by measuring the percentage of hydrolyzed compound versus time.
10 mg of cationic compound (6) prepared in example 2 or anionic compound (11) prepared in example 6 were dissolved in a mixture of MeOD:Buffer phosphate (1:2) (pH 5 or 7.4), mixed and placed in a NMR tube. ^1H NMR Experiment was performed at 37° C. at 300 MHz on a BRUKER® Avance DPX-300.
After hydrolysis of the orthoester function, the chemical shifts of the thymidine CH3 protons are shifted upfield and downfield for compound 6 and 11, respectively. Thus, the percentage of hydrolysis versus time was followed by integrating the signals of the CH3 protons.

[3] = Small-angle X-ray scattering (SAXS) of compound 6/DOPC; type: physicochemical; conditions: with DOPC (mol ratio 50/50), incubation at pH=5 and 37° C.
Description: […] SAXS experiments were carried out at the Centre de Recherche Paul Pascal, Pessac, France on a NanoStar (Bruker). With a sample to detector distance equal to 650 mm and a radiation wavelength of A=0.154 nm, the scattering wave vectors in reciprocal space ranged from q=0.16 nm^−1 and 3.4 nm^−1.
The beam size at the sample position was 0.45 mm (0). Images were captured by the HiStar (Bruker).
The array of detection totalizes 1024×1024 pixels, each one with 100 μm for side. Data were radially averaged and corrected for background scattering by using the software SAXS-Bruker. All experiments were carried out on thermally equilibrated samples at 25° C., which was obtained by keeping the sample holders under water circulation at controlled temperature.

[4] = DLS of nucleolipid/DOPE liposomes and siRNA complexes; type: physicochemical; conditions: for size of siRNA complexes with siRNA RECQL4 / size of siRNA complexes with siRNA luciferase: 10 pmol siRNA + 2 nmol nucleolipid/DOPE, serum-free medium; for diameter of liposomes: nucleolipid/DOPE liposomes in water
Description: (§1) Compound 6 and DOPE were mixed with molar ratio and dissolved in methylene chloride. The solvent was evaporated with nitrogen flow while stirring to prepare lipids films. This preparation was rehydrated with 1 mL of water, them submitted to Vortex, and the tube was put in ultrasonic bath (37 kHz) during 15-20 min at 15° C. The same experiment was carried out with DOTAU/DOPE (1:1) Liposomes were analysed by DLS (Malvern, Zetasizer) and measured 74 nm of diameters for orthoester and 48 nm for DOTAU. 10 pmol of siRNA were added to 2 nmol of orthoester/DOPE in 100 μL of PRMI 1640 serum-free medium. After submitting to Vortex, this solution was incubated 20 min at RT and transferred in wells. The siRNA orthoester/DOPE complexes were analysed by DLS and measured at 90 nm with siRNA luciferase and at 100 nm with siRNA RECQL4 for orthoester (69 nm and 63 nm, respectively for DOTAU).

[5] = system: RECQL4; test: Inhibition of RECQL4 by siRNA transfection, qPCR normalized with GAPDH; type: cell-based, human; conditions: MDA-MB-134 breast cancer cells, 72 h, nucleolipid/DOPE complexes, N/P 1/5 and 1/10
Description: as §1, with “RECQL4 is a human RecQ helicase implicated in three syndromes (Rothmund-Thompson, […] and Baller-Gerold) displaying accelerating aging, developmental abnormalities and cancer's predisposition. […] In this example, the efficacy of compound 6 prepared in example 2 in the transfection of siRNA targeting RECQL4 is evaluated. Compound” for “Compound”, “(1:1)” for “(1:1) Liposomes were analysed by DLS (Malvern, Zetasizer) and measured 74 nm of diameters for orthoester and 48 nm for DOTAU.”, “DOTAU). 2.10^5 MDA-MB-134 cells by well were added in 500 μL final volume. […] RNA was converted in cDNA by Reverse Transcription with QuantiTect kit (Qiagen). Then, a quantitative PCR was performed with 25 ng of cDNA, the master mix GoTaq qPCR (Promega) and specific primers (1 μM). […]” for “DOTAU).”

size of siRNA complexes with siRNA RECQL4 [4] | size of siRNA complexes with siRNA luciferase [4] | diameter of liposomes [4] | Structure (SMILES) | ζ (zeta potential) of liposomes [1] | Pdi (polydispersity) of liposomes [1] | d (diameter) of liposomes [1] | rate of hydrolysis of the orthoester function, effect of pH [2] | SAXS profile before and after incubation [3] | expression of RECQL4 after siRNA transfection [5] | rate of hydrolysis relative to cationic compound 6 ([2]; at both pH 5 and 7, 37° C.)
100 nm | 90 nm | 74 nm | CCCCCCCCCCCCCCCCOC(OCCCCCCCCCCCCCCCC)O[C@H]1C[C@H](n2cc(C)c(=O)[nH]c2=O)O[C@@H]1C[N+](C)(C)C.CS(=O)(=O)[O-] [Compound 6, 1-((2R,3S,5R)-3-(bis(hexadecyloxy)methoxy)-5-(5-methyl-2,4-dioxo-3,4-dihydropyrimidin-1 (2H)-yl)tetrahydrofuran-2-yl)-N,N,N-trimethyl-methanaminium methanesulfonate] | 51.4 mV | 0.221 | 135.9 nm | higher rates of hydrolysis at pH=5 | evolves from vesicular to multilamellar systems | able to inhibit the expression of RECQL4 | –
– | – | – | CCCCCCCCCCCCCCCCOC(OCCCCCCCCCCCCCCCC)O[C@H]1C[C@H](n2cc(C)c(=O)[nH]c2=O)O[C@@H]1COP(=O)(O)OC [Compound 11, ((2R,3S,5R)-3-(bis(hexadecyloxy)methoxy)-5-(5-methyl-2,4-dioxo-3,4-dihydropyrimidin-1(2H)-yl)tetrahydrofuran-2-yl)methyl methyl phosphate] | −43.3 mV | 0.163 | 100.4 nm | higher rates of hydrolysis at pH=5 | – | – | increased hydrolysis rates
63 nm | 69 nm | 48 nm | CCCCCCCC/C=C\CCCCCCCC(=O)OC1C(C[N+](C)(C)C)OC(n2ccc(=O)[nH]c2=O)C1OC(=O)CCCCCCC/C=C\CCCCCCCC.Cc1ccc(S(=O)(=O)[O-])cc1 (stereo not drawn) [DOTAU, N-[5′-(2′,3′-dioleoyl)uridine]-N′,N′,N′-trimethylammonium tosylate, reference compound] | – | – | – | – | – | not able to transfect the siRNA targeting RECQL4 | –
